Activity calls are given as the source filed them. No cut-off for these calls is given here.
Columns and labels:
[1] = molecular target: T1, 3',5'-cyclic-AMP phosphodiesterase 4D (Homo sapiens, UniProt Q08499); assay: Inhibition of PDE4D (unknown origin) at 1 uM relative to control
RAW264.7 [2] = assay: Cytotoxicity against mouse RAW264.7 cells at 10 uM measured after 24 hrs by CCK-8 method; type: functional, cell-based
[3] = molecular target: T1, 3',5'-cyclic-AMP phosphodiesterase 4D; assay: Inhibition of PDE4D (unknown origin)
RAW264.7 [4] = assay: Antiinflammatory activity against mouse RAW264.7 cells assessed as inhibition of LPS-induced NO release preincubated for 2 hrs followed by LPS stimulation and measured after 4 hrs by RT-PCR analysis; type: functional, cell-based
RAW264.7 [5] = assay: Antiinflammatory activity against mouse RAW264.7 cells assessed as inhibition of LPS-induced TNF-alpha release preincubated for 2 hrs followed by LPS stimulation and measured after 4 hrs by RT-PCR analysis; type: functional, cell-based
RAW264.7 [6] = assay: Cytotoxicity against mouse RAW264.7 cells measured after 24 hrs by CCK-8 method; type: functional
Enterococcus faecium = assay: Antibacterial activity against Enterococcus faecium BNCC358275 assessed as reduction in bacterial colonies growth at 512 ug/ml measured after 24 hrs by agar plate method; type: functional, organism-based; conditions: dose 512.0 µg/ml
Enterococcus faecalis = assay: Antibacterial activity against Enterococcus faecalis BNCC296862 assessed as reduction in bacterial colonies growth at 512 ug/ml measured after 24 hrs by agar plate method; type: functional, organism-based; conditions: dose 512.0 µg/ml
Rattus norvegicus [7] = assay: Antiinflammatory activity against male Sprague-Dawley rat pressure ulcer model assessed as increase in number of fibroblasts administered as ointment by Masson staining based analysis; type: functional, organism-based
Rattus norvegicus [8] = assay: Antiinflammatory activity against male Sprague-Dawley rat pressure ulcer model assessed as increase in number of fibroblasts administered as ointment by H and E staining based analysis; type: functional, organism-based
Rattus norvegicus [9] = assay: Antiinflammatory activity against male Sprague-Dawley rat pressure ulcer model assessed as decrease in inflammatory cells in dermis administered as ointment by H and E staining based analysis; type: functional, organism-based
Rattus norvegicus [10] = assay: Antiinflammatory activity against male Sprague-Dawley rat pressure ulcer model assessed as reduction in TNF-alpha mRNA expression in skin administered as ointment by qRT-PCR analysis; type: functional, organism-based
Rattus norvegicus [11] = assay: Antiinflammatory activity against male Sprague-Dawley rat pressure ulcer model assessed as appearance of thinner epidermal layer administered as ointment by H and E staining based analysis; type: functional, organism-based
Rattus norvegicus [12] = assay: Antiinflammatory activity against male Sprague-Dawley rat pressure ulcer model assessed as appearance of thinner epidermal layer administered as ointment by Masson staining based analysis; type: functional, organism-based
Rattus norvegicus [13] = assay: Antiinflammatory activity against male Sprague-Dawley rat pressure ulcer model assessed as reduction in IL6 mRNA expression in skin administered as ointment by qRT-PCR analysis; type: functional, organism-based
Rattus norvegicus [14] = assay: Antiinflammatory activity against male Sprague-Dawley rat pressure ulcer model assessed as appearance of orderly arranged cells administered as ointment by Masson staining based analysis; type: functional, organism-based
Rattus norvegicus [15] = assay: Antiinflammatory activity against male Sprague-Dawley rat pressure ulcer model assessed as wound healing rate administration as ointment measured after 7 days (reference value: 70%); type: functional; conditions: time 7 day
Rattus norvegicus [16] = assay: Antiinflammatory activity against male Sprague-Dawley rat pressure ulcer model assessed as decrease in inflammatory cells in dermis administered as ointment by Masson staining based analysis; type: functional, organism-based
Rattus norvegicus [17] = assay: Antiinflammatory activity against male Sprague-Dawley rat pressure ulcer model assessed as appearance of orderly arranged cells administered as ointment by H and E staining based analysis; type: functional, organism-based

T1 sequence (Q08499 whole entry): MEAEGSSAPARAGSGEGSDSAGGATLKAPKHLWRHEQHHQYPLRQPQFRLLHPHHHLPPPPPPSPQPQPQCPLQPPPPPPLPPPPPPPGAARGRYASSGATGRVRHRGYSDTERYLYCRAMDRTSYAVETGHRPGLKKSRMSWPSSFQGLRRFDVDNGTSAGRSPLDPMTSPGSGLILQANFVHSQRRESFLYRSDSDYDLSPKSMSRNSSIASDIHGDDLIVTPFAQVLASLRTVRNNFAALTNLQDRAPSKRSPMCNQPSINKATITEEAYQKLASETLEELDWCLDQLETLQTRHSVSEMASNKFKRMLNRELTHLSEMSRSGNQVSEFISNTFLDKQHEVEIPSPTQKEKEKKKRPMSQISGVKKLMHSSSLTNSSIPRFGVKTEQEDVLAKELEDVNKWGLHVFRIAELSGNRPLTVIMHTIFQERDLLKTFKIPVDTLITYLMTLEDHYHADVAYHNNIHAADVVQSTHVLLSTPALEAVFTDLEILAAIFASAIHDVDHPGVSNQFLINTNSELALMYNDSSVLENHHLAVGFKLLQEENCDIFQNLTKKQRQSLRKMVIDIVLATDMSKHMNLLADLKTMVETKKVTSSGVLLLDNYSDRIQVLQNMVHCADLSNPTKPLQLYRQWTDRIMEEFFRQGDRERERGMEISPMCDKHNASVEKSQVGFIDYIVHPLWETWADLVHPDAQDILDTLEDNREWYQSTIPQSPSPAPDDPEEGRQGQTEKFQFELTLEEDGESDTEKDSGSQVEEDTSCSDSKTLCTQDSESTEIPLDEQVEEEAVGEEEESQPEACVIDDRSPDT

Row | Compound | inhibition [1] | Activity (RAW264.7 [2]) | other results
1 | Cn1c(=O)c2c(nc(NCc3ccccc3)n2CCCC(=O)NNC(=O)c2coc(-c3ccc(OC(F)F)c(OCC4CC4)c3)n2)n(C)c1=O | 85.5% | inactive | 
2 | Cn1c(=O)c2c(nc(NCc3ccccc3)n2CCCC(=O)NNC(=O)c2cccc3[nH]c(-c4ccc(OC(F)F)c(OC(F)F)c4)nc23)n(C)c1=O | 92.4% | inactive | 
3 | Cn1c(=O)c2c(ncn2CCC(=O)NNC(=O)c2cccc3[nH]c(-c4ccc(OC(F)F)c(OC(F)F)c4)nc23)n(C)c1=O | 92.6% | inactive | IC50 [3]: 29 nM
4 | Cn1c(=O)c2c(ncn2CCCC(=O)NNC(=O)c2csc(-c3ccc(OC(F)F)c(OCC4CC4)c3)n2)n(C)c1=O | 98.4% | inactive | 
5 | Cn1c(=O)c2c(ncn2CCCC(=O)NNC(=O)c2cccc3[nH]c(-c4ccc(OC(F)F)c(OCC5CC5)c4)nc23)n(C)c1=O | 96.8% | inactive | 
6 | Cn1c(=O)c2c(nc(NCc3ccccc3)n2CCCC(=O)NNC(=O)c2cc3nccc(-c4ccc(OC(F)F)c(OCC5CC5)c4)n3n2)n(C)c1=O | 43% | inactive | 
7 | Cn1c(=O)c2c(ncn2CCCC(=O)NNC(=O)c2cccc3[nH]c(-c4ccc(OC(F)F)c(OC(F)F)c4)nc23)n(C)c1=O | 97.9% | inactive | IC50 (RAW264.7 [4]): 2180 nM; IC50 [3]: 41 nM; IC50 (RAW264.7 [5]): > 60000 nM; CC50 (RAW264.7 [6]): 76800 nM
8 | Cn1c(=O)c2c(nc(Br)n2CCCC(=O)NNC(=O)c2cccc3[nH]c(-c4ccc(OC(F)F)c(OC(F)F)c4)nc23)n(C)c1=O | 96.8% | inactive | 
9 | Cn1c(=O)c2c(ncn2CCC(=O)NNC(=O)c2csc(-c3ccc(OC(F)F)c(OCC4CC4)c3)n2)n(C)c1=O | 87.5% | inactive | 
10 | Cn1c(=O)c2c(ncn2CCC(=O)NNC(=O)c2c[nH]c(-c3ccc(OC(F)F)c(OCC4CC4)c3)n2)n(C)c1=O | 96.4% | inactive | 
11 | Cn1c(=O)c2c(nc(Br)n2CCCC(=O)NNC(=O)c2csc(-c3ccc(OC(F)F)c(OCC4CC4)c3)n2)n(C)c1=O | 97.2% | inactive | 
12 | COc1ccc(C2CNC(=O)C2)cc1OC1CCCC1 (stereo not given) [ROLIPRAM] |  |  | IC50 (RAW264.7 [4]): > 60000 nM; IC50 (RAW264.7 [5]): 39900 nM; CC50 (RAW264.7 [6]): > 60000 nM
13 | Cn1c(=O)c2c(ncn2CCC(=O)NNC(=O)c2cccc3[nH]c(-c4ccc(OC(F)F)c(OCC5CC5)c4)nc23)n(C)c1=O | 96.9% | inactive | 
14 | Cn1c(=O)c2c(ncn2CCC(=O)NNC(=O)c2cnn3c(-c4ccc(OC(F)F)c(OCC5CC5)c4)ccnc23)n(C)c1=O | 38.8% | inactive | 
15 | Cn1c(=O)c2c(nc(NCc3ccccc3)n2CCCC(=O)NNC(=O)c2cnn3c(-c4ccc(OC(F)F)c(OCC5CC5)c4)ccnc23)n(C)c1=O | 30.3% | inactive | 
16 | Cn1c(=O)c2c(nc(NCc3ccccc3)n2CCCC(=O)NNC(=O)c2cccc3[nH]c(-c4ccc(OC(F)F)c(OCC5CC5)c4)nc23)n(C)c1=O | 85.7% | inactive | 
17 | CN[C@H](CC(C)C)C(=O)N[C@H]1C(=O)N[C@@H](CC(N)=O)C(=O)N[C@H]2C(=O)N[C@H]3C(=O)N[C@H](C(=O)N[C@H](C(=O)O)c4cc(O)cc(O)c4-c4cc3ccc4O)[C@H](O)c3ccc(c(Cl)c3)Oc3cc2cc(c3O[C@@H]2O[C@H](CO)[C@@H](O)[C@H](O)[C@H]2O[C@H]2C[C@](C)(N)[C@H](O)[C@H](C)O2)Oc2ccc(cc2Cl)[C@H]1O |  |  | Activity (Enterococcus faecium): Active; Activity (Enterococcus faecalis): Active
18 | Cn1c(=O)c2c(ncn2CCC(=O)NNC(=O)c2c[nH]c(-c3ccc(OC(F)F)c(OC(F)F)c3)n2)n(C)c1=O | 82.1% | inactive | 
19 | Cn1c(=O)c2c(ncn2CCCC(=O)NNC(=O)c2cnn3c(-c4ccc(OC(F)F)c(OCC5CC5)c4)ccnc23)n(C)c1=O | 85.7% | inactive | 
20 | O=C(Nc1c(Cl)cncc1Cl)c1ccc(OC(F)F)c(OCC2CC2)c1 [ROFLUMILAST] |  |  | Activity (Rattus norvegicus [7]): Active; Activity (Rattus norvegicus [8]): Active; Activity (Rattus norvegicus [9]): Active; Activity (Rattus norvegicus [10]): Active; Activity (Rattus norvegicus [11]): Active; Activity (Rattus norvegicus [12]): Active; Activity (Rattus norvegicus [13]): Active; Activity (Rattus norvegicus [14]): Active; Activity (Rattus norvegicus [15]): 81%; Activity (Rattus norvegicus [16]): Active; Activity (Rattus norvegicus [17]): Active
21 | Cn1c(=O)c2c(nc(Br)n2CCCC(=O)NNC(=O)c2cccc3[nH]c(-c4ccc(OC(F)F)c(OCC5CC5)c4)nc23)n(C)c1=O | 99.2% | inactive | 
22 | Cn1c(=O)c2c(ncn2CCCC(=O)NNC(=O)c2cc3nccc(-c4ccc(OC(F)F)c(OCC5CC5)c4)n3n2)n(C)c1=O | 95.6% | inactive | 
23 | Cn1c(=O)c2c(nc(NCc3ccccc3)n2CCCC(=O)NNC(=O)c2csc(-c3ccc(OC(F)F)c(OCC4CC4)c3)n2)n(C)c1=O | 89.9% | inactive | 
24 | Cn1c(=O)c2c(nc(Br)n2CCCC(=O)NNC(=O)c2coc(-c3ccc(OC(F)F)c(OCC4CC4)c3)n2)n(C)c1=O | 85.3% | inactive | 
25 | Cn1c(=O)c2c(nc(Br)n2CCCC(=O)NNC(=O)c2cc3nccc(-c4ccc(OC(F)F)c(OCC5CC5)c4)n3n2)n(C)c1=O | 94.7% | inactive | IC50 [3]: 276 nM
26 | Cn1c(=O)c2c(ncn2CCCC(=O)NNC(=O)c2coc(-c3ccc(OC(F)F)c(OCC4CC4)c3)n2)n(C)c1=O | 92.4% | inactive | 
27 | Cn1c(=O)c2c(ncn2CCC(=O)NNC(=O)c2coc(-c3ccc(OC(F)F)c(OCC4CC4)c3)n2)n(C)c1=O | 63% | inactive | 

Reference: ChEMBL document CHEMBL6178016, “Design, Synthesis, and Biological Evaluation of New PDE4 Inhibitors for the Treatment of Pressure Ulcers” (J Med Chem, 2025)
